≈ marks a conversion by molar mass, not a printed value.
Experiments:
Assay type in all cases: functional
[1] = test system: Escherichia coli; experiment: Antimicrobial activity against Escherichia coli
[2] = test system: Bacillus subtilis; experiment: Antimicrobial activity against Bacillus subtilis
[3] = test system: Staphylococcus epidermidis; experiment: Antimicrobial activity against Staphylococcus epidermidis

| MIC [1] [µg/mL] | MIC [2] [µg/mL] | MIC [3] [µg/mL] | Compound |
| --- | --- | --- | --- |
| > 400 | > 400 | 20 (≈ 48.7 µM) | CC1=C(CC/C(C)=C/CC/C(C)=C/Cc2cc(C(=O)O)ccc2O)C(C)(C)CCC1 [CACOSPONGIN D] |
| > 400 | > 400 | 2.5 (≈ 6.09 µM) | C=C(C)CCC[C@@]1(C)CCC[C@@]2(C)[C@H](Cc3cc(C(=O)O)ccc3O)C(=C)CC[C@H]12 |
| > 400 | > 400 | 2.5 (≈ 6.09 µM) | CC(C)=CCC[C@@]1(C)CCC[C@]2(C)[C@@H](Cc3cc(C(=O)O)ccc3O)C(C)=CC[C@@H]12 [JASPIC ACID] |
| > 400 | > 400 | 5 (≈ 13.1 µM) | CC1=C(CC/C(C)=C/CC/C(C)=C/Cc2cc(O)ccc2O)C(C)(C)CCC1 [JASPAQUINOL] |

— ChEMBL document CHEMBL1142122, “Extending the record of meroditerpenes from Cacospongia marine sponges” (2007)
